Experimental data as given in patent US20160287534A1, “METHODS FOR REVERSING FIBROSIS” (The University of Connecticut, priority 2015, published 2016).

Legend:
LX-2 cells [1] = experiment: qRT-PCR of fibrogenic genes in LX-2 cells (Example 2); format: cell-based
Protocol: (§1) Mouse primary HSCs were isolated from C57BL/6J, nuclear erythroid 2-related factor 2 (NRF2) knockout (Nrf2−/−), and wild-type mice using a pronase/collagenase digestion method as described herein Example 1. The cells were then cultured on untreated petri dishes (BD Falcon, Franklin Lakes, N.J.), and maintained in a low-glucose DMEM medium supplemented with 10% FBS, 4 mM L-glutamine, and P/S (100 U/100 μg per mL). Human primary HSCs (Zen-Bio, Research Triangle Park, N.C.) were maintained in a low-glucose DMEM medium containing 2% FBS, 4 mM L-glutamine, 1× nonessential amino acids, 1× vitamins, and P/S (100 U/100 μg per mL). The cells were seeded on a collagen-coated plate for experiments (Sarstedt, Newton, N.C.). LX-2 cells, kindly provided by Dr. Scott Friedman at the Icahn School of Medicine at Mount Sinai (New York, N.Y.), were maintained in a low-glucose DMEM supplemented with 2% FBS, 4 mM L-glutamine, and P/S (100 U/100 μg per mL). All cells were cultured in a 37° C. humidified cell culture chamber with 5% CO2. Cell culture supplies were purchased from HyClone unless stated otherwise (Thermo Scientific, Logan, Utah).
Total RNA extraction, cDNA synthesis, and qRT-PCR were conducted using a Bio-Rad CFX96 Real-Time system (Bio-Rad, Hercules, Calif.) as previously described (Id.). Primer sequences will be available upon request. […]

α-SMA = experiment: Western blot and immunostaining of α-SMA protein in LX-2 cells; format: cell-based; conditions: 25 μM ASTX (FIGS. 3B, 3C)
Protocol: LX-2 cells were kindly provided by Dr. Scott Friedman at the Icahn School of Medicine at Mount Sinai (New York, N.Y.). Cells were maintained in low-glucose DMEM containing 2% FBS, 4 mM 1-glutamine, 100 U/mL penicillin and 100 μg/mL streptomycin in a 37° C. humidified cell culture chamber providing 5% CO2. LX-2 cells were incubated with varying concentrations of ASTX for 12 or 24 h, and subsequently activated by 2 ng/mL of TGFβ1 (Peprotech, Rocky Hill, N.J.) for 1 to 24 h. Primary mouse HSCs were plated on untreated petri dishes (BD Falcon, Franklin Lakes, N.J.) and maintained in low-glucose DMEM supplemented with 10% FBS, 4 mM L-glutamine, 100 U/mL penicillin and 100 μg/mL streptomycin in a 37° C. humidified cell culture chamber under 5% CO2. ASTX (25 μM) was added at day 2 or day 4 after plating until day 6 with daily media change. […]
Whole cell lysates were prepared to conduct Western blot as we previously described (Id.) using antibodies against α-SMA (Sigma, St. Louis, Mo.), Smad3 (Millipore, Billerica, Mass.), and phospho-Smad3 (Cell Signaling, Danvers, Mass.). β-Tubulin (Santa Cruz Biotechnology, Santa Cruz, Calif.) or β-actin (Sigma, St. Louis, Mo.) was used as a loading control. […] Blots were developed using Westpico horseradish peroxidase chemiluminescence (Pierce, Rockford, Ill.) and images were analyzed using a Chemidoc XRS+system (Bio-Rad) and Image Lab software (Bio-Rad). […]

LX-2 cells [2] = experiment: Reactive oxygen species (ROS) measurement in LX-2 cells stimulated with TGFβ1 or tBHP; format: cell-based
Protocol: Cellular ROS levels were measured in LX-2 cells as previously described (see Lee et al. J. Nutr. Biochem. 2013, vol. 25, iss. 4, pp. 404-411). Briefly, LX-2 cells were plated in a black 24-well plate (Wallac Oy, Turku, Finland). When cells reached ˜90% confluency, they were pre-incubated with 5, 10 or 25 μM ASTX for 24 h and subsequently stimulated with 2 ng/mL TGFβ1 or 10 μM tert-butyl hydrogen peroxide (tBHP, Sigma, St. Louis, Mo.) for additional 24 h. cells were then incubated with 5 μM dichlorofluorescein (Sigma, St. Louis, Mo.) for 30 min and fluorescence was read at an excitation wavelength of 485 nm and an emission wavelength of 530 nm. The data were expressed as fluorescent intensity per μg of cell protein.

[3] = system: HSCs from wild-type and Nrf2−/− mice; experiment: qRT-PCR of HSCs from wild-type and Nrf2−/− mice; format: cell-based, mouse
Protocol: as §1
ASTX, provided by Fuji Chemical Industry Co., Ltd. (Toyama, Japan), was prepared in DMSO as described herein in Example 1. After plated on an uncoated dish, mouse qHSCs were incubated with 25 μM ASTX during activation. aHSCs, which were prepared by culturing qHSCs on an uncoated dish for 6 d, were incubated with 25 μM ASTX for 2 or 4 more days. Also, cells were incubated with 3 μM tert-butyl hydrogen peroxide (tBHP, Thermo Scientific) for 12 h with or without 25 μM ASTX. Medium containing ASTX was replenished daily and DMSO vehicle control was always run in parallel. Human primary HSC were treated with 25 μM ASTX for 24 h, after which they were activated by 3 ng/mL of TGFβ1 (Peprotech, Rocky Hill, N.J.) for 24 h.
Total RNA extraction, cDNA synthesis, and qRT-PCR were conducted using a Bio-Rad CFX96 Real-Time system (Bio-Rad, Hercules, Calif.) as previously described (Id.). Primer sequences will be available upon request.

CC1=C(/C=C/C(C)=C/C=C/C(C)=C/C=C/C=C(C)/C=C/C=C(C)/C=C/C2=C(C)C(=O)C(O)CC2(C)C)C(C)(C)CC(O)C1=O (stereo not drawn) [ASTX, astaxanthin]
basal levels of α-SMA and Col1A1 expression (LX-2 cells [1]; LX-2 cells pretreated with ASTX 12 h (FIG. 13A)): repressed
α-SMA and Col1A1 expression induced by TGFβ1 (LX-2 cells [1]; LX-2 cells, ASTX 12 h, then 3 ng/mL TGFβ1 12 h (FIG. 13A)): attenuated
protein levels of α-SMA induced by TGFβ1 (α-SMA): significantly decreased
increase in cellular ROS levels induced by TGFβ1 (LX-2 cells [2]; 25 μM ASTX, 2 ng/mL TGFβ1): completely abolished
increase in cellular ROS levels induced by tBHP (LX-2 cells [2]; 25 μM ASTX, 10 μM tBHP): completely abolished
cellular ROS levels increased by TGFβ1 and tBHP (LX-2 cells [2]; LX-2 cells pretreated with 5, 10 or 25 μM ASTX 24 h (FIGS. 1B, 1C)): decreased
α-SMA and Col1A1 mRNA ([3]; both wild-type and Nrf2−/− HSCs, activated 6 d with ASTX (FIG. 8C)): able to decrease
tBHP-increased α-SMA expression ([3]; both wild-type and Nrf2−/− HSCs, tBHP at day 6 for 12 h (FIG. 8D)): attenuated
NRF2 expression ([3]; wild-type HSCs (FIG. 8D)): significantly decreased
